Test results reported in ChEMBL document CHEMBL4184301, “Two new coumarins and a new xanthone from the leaves of Rhizophora mucronata” (Bioorg Med Chem Lett, 2018).

How the values were obtained:
HL-60 = experiment: Antiproliferative activity against human HL60 cells after 48 hrs by CCK8 assay; assay type: functional, cell-based; settings: HL-60, 48 h
HeLa = experiment: Antiproliferative activity against human HeLa cells after 48 hrs by CCK8 assay; assay type: functional, cell-based
[1] = Selectivity index, ratio of CC50 for mouse […] cells to IC50 for human HL60 cells; assay type: toxicity; settings: NIH/3T3 cells (printed […]) and HL60 cells, read-out: Ratio CC50/IC50
[2] = Cytotoxicity against mouse NIH/3T3 cells after 48 hrs by CCK8 assay; assay type: cell-based, NIH3T3

Row | Compound | IC50 (HL-60) | IC50 (HeLa) | selectivity ratio [1] | CC50 at 48 h [2]
1 | COC(=O)C=C(c1ccccc1)c1c(O)c2c(c3c1OC(C)(C)C=C3)O[C@H](C)[C@@H](C)C2=O (mixture of isomers) | 10.7 µM | 33 µM |  | 
2 | CC(C)=CCc1c(O)cc2oc3c(O)cccc3c(=O)c2c1O | 6.3 µM | 37.1 µM |  | 
3 | C/C=C(/C)C(=O)c1c2c(c(OC)c3c(-c4ccccc4)cc(=O)oc13)C=CC(C)(C)O2 | 18.3 µM | 42.8 µM |  | 
4 | CO[C@H]1c2c(c3c(c4c(-c5ccccc5)cc(=O)oc24)OC(C)(C)C=C3)O[C@H](C)[C@H]1C | 12.9 µM | 3.8 µM |  | 
5 | C=C(C)C(O)Cc1c(O)cc2c(=O)c3cccc(O)c3oc2c1O (stereo unspecified) | 36.8 µM | 14.5 µM |  | 
6 | O=c1cc(-c2ccc(O)cc2)oc2cc(O)cc(O)c12 [APIGENIN] | 22.3 µM | 21.3 µM |  | 
7 | O=C(O)c1cccc(O)c1O [2,3-DIHYDROXYBENZOIC ACID] | > 60 µM | > 60 µM |  | 
8 | O=c1cc(-c2ccc(O)c(-c3c(O)cc(O)c4c(=O)cc(-c5ccc(O)cc5)oc34)c2)oc2cc(O)cc(O)c12 [AMENTOFLAVONE] | 51.2 µM | 5.3 µM |  | 
9 | CC(C)=CCc1c2c(c3oc(=O)cc(-c4ccccc4)c3c1O)C(=O)[C@H](C)[C@@H](C)O2 [BRASIMARIN C] | 10.1 µM | 4.4 µM |  | 
10 | C/C=C(\C)C(=O)c1c(O)c(/C(=C/C(=O)O)c2ccccc2)c2c(c1OC)C=CC(C)(C)O2 | 2.2 µM | 36.4 µM | 19.2 | 41.1 µM
11 | C[C@@H]1C(=O)c2c(O)c(C(=CC(=O)O)c3ccccc3)c3c(c2O[C@@H]1C)C=CC(C)(C)O3 (mixture of isomers) | 35.6 µM | 21.2 µM |  | 
12 | C[C@H]1Oc2c3c(c4c(-c5ccccc5)cc(=O)oc4c2C(=O)[C@@H]1C)OC(C)(C)C=C3 | 35.3 µM | 8.3 µM |  | 
13 | CC1(C)C=Cc2c(cc3oc4c(O)c(O)ccc4c(=O)c3c2O)O1 [JACAREUBIN] | 1 µM | 4.8 µM | 10.2 | 10.2 µM
14 | CO[C@@]12[C@H](COC(N)=O)C3=C(C(=O)C(C)=C(N)C3=O)N1C[C@@H]1N[C@@H]12 [MITOMYCIN] | 0.19 µM | 1.13 µM |  | 
15 | CC1(C)C=Cc2c(cc3oc4c(O)cccc4c(=O)c3c2O)O1 | 2.7 µM | 26 µM | 9.4 | 25.3 µM
16 | C/C=C(\C)C(=O)c1c(OC)c2c(c3c(-c4ccccc4)cc(=O)oc13)OC1C2C1(C)C (stereo unspecified) | 2.6 µM | 29.9 µM | 8.6 | 22.3 µM
17 | CC(=O)O[C@H]1C(=O)[C@@]2(C)[C@H]([C@H](OC(=O)c3ccccc3)[C@]3(O)C[C@H](OC(=O)[C@H](O)[C@@H](NC(=O)c4ccccc4)c4ccccc4)C(C)=C1C3(C)C)[C@]1(OC(C)=O)CO[C@@H]1C[C@@H]2O [PACLITAXEL] | 0.0026 µM | 0.023 µM |  | 
18 | C[C@H]1Oc2c3c(c(C(=CC(=O)O)c4ccccc4)c(O)c2C(=O)[C@@H]1C)OC(C)(C)C=C3 (mixture of isomers) | 24.5 µM | > 60 µM |  | 
19 | C[C@@H]1C(=O)c2c(c3c(c4c(-c5ccccc5)cc(=O)oc24)OC(C)(C)C=C3)O[C@@H]1C | > 60 µM | 21.6 µM |  | 
